The structures appear in SMILES notation.

Holding throughout (assay type): cell-based
The subject of assay [1] is kératinocytes. Put plainly: Synthesis of sulfated glycosaminoglycans (radioactive label incorporation) in keratinocyte cultures. Conditions: keratinocytes, second experiment, n=2.
Assay [2] has as its system fibroblastes dermiques humains normaux. Put plainly: Synthesis of sulfated glycosaminoglycans (radioactive label incorporation) in fibroblast cultures. Conditions: fibroblasts, second experiment, n=2; for activity at 100 µM / activity at 1000 µM: Fibroblast, control = 100, read-out: % (synthèse des glycosaminoglycanes par rapport au témoin).
Assay [3] relates to kératinocytes. Put plainly: Synthesis of sulfated glycosaminoglycans (radioactive label incorporation) in keratinocyte cultures. Conditions: keratinocytes, n=3. An excerpt: (§1) Etude de l'effet de dérivés C-glycosides sur la synthèse des glycosaminoglycannes sulfatés sur fibroblastes et sur kératinocytes : • L'étude est faite par mesure de l'incorporation de glucosamine radioactive dans la matrice néosynthétisée par des cultures de fibroblastes dermiques humains normaux ou par des kératinocytes. L'incorporation de glucosamine radioactive indique une néosynthèse spécifique de glycosaminoglycannes via une incorporation de la forme acétylée de cette glucosamine.
Les cultures de kératinocytes sont effectuées en milieu Keratinocyte-SFM vendu par la société Gibco , en présence d'EGF (Epidermal Growth Factor) (0,25 ng/ml), d'extrait pituitaire (25 µg/ml) et de gentamycine (25 µg/ml).
(§2) Les fibroblastes et les kératinocytes ont été cultivés en plaques de 96 puits. A confluence, le milieu de culture a été remplacé par du milieu de culture adéquat contenant ou non (témoin) le composé à tester ou la référence, puis les cellules ont été incubées pendant 48 heures. Le marqueur radioactif 35 S-sulfate a été ajouté (40 µCi final) et les cellules ont été incubées pendant 24 heures supplémentaires. Toutes les conditions ont été réalisées 3 fois.
(§3) Les glycosaminoglycanes de la matrice extracellulaire ont été extraits avec un volume tampon chaotropique (Tris/HCl 50 mM, guanidine 4 M, EDTA 5 mM, pH 8,0). Les GAGs sulfatés ont été purifiés par chromatographie d'échanges d'ions : absorption des molécules anioniques sur billes de Q-Sépahrose dans des conditions de forte stringence, désorption des molécules peu et moyennement anioniques avec uns solution urée 6 M NaCl […], puis lavages. La radioactivité incorporée dans les molécules […] restées sur le support (GAGs majoritairement) a été mesurée par scintillation liquide. Les résultats sont évalués par apport à un témoin constitué par des cellules n'ayant pas été traitées avec un composé de formule (I). Un témoin positif (TGFβ à 10 ng/ml) connu pour stimuler la synthèse des GAGs est introduit dans le test effectéu sur fibroblastes comme référence positive. Un témoin positif (CaCl2 à 1,4 mM) connu pour stimuler la synthèse des GAGs est introduit dans le test effectué sur kératinocytes comme référence positive.
(§4) Les résultats sont exprimés en pourcentage de variation de la synthèse des glycosaminoglycanes par rapport au témoin.
(§5) On a effectué 3 essais pour le composé testé.
(§6) Les comparaisons des résultats obtenus pour un composé testé ont été réalisés à l'aide du test de Student.
(§7) L'écart type de la moyenne (esm) a été calculé selon la relation suivante : esm = écart type/((n))^(1/2) [formula] • n étant le nombre d'essais effectués.
(§8) Les valeurs mesurées sont données en coups par minute (cpm) • n : nombre d'essais effectués • p : intervalle de confiance • esm : écart type de la moyenne

For assay [4], the system named is fibroblastes dermiques humains normaux. Put plainly: Synthesis of sulfated glycosaminoglycans (radioactive label incorporation) in fibroblast cultures. The following applies: for augmenter la synthèse des GAGs sulfatés: summary in words of the results on fibroblasts and keratinocytes.
Source text: as §1
Les cultures de fibroblastes sont effectuées selon les méthodes classiques de culture cellulaire, à savoir en milieu DMEM vendu par la société Gibco, en présence de L-glutamine (2 mM), de pénicilline (50 Ul/ml) et de 10% de sérum de veau foetal (Gibco).
as §2, §3, §4, §5, §6, §7, §8

[5] abbreviates: Keratinocyte, 0,1 mM, control = 100, read-out: % (synthèse des glycosaminoglycanes par rapport au témoin).
Where [6] appears, read: Keratinocyte, 1 mM, control = 100, read-out: % (synthèse des glycosaminoglycanes par rapport au témoin).

With `CC(C[C@@H]1OC[C@@H](O)[C@H](O)[C@H]1O)NCCCO` (stereo partly drawn) [1-[2-(3-hydroxy-propylamino)-propyl]-C-β-D-xylopyranose], the activity at 100 µM was 99% in the assay on kératinocytes [1] (setting [5]) and 113% in assay [2] (0,1 mM). For the same compound, the values for the activity at 1000 µM (in the assay with kératinocytes [1] (setting [6]); in assay [2] (1 mM)) were 145% and 121%, respectively. Also, the Valeur moyenne in the assay with kératinocytes [1] (0,1 mM) came out at 12660 cpm; in the assay on kératinocytes [1] (1 mM), 18691 cpm; in assay [2] (0,1 mM), 2856 cpm; in assay [2] (1 mM) it was 3039 cpm.

Take `CNC(C)C[C@@H]1OC[C@@H](O)[C@H](O)[C@H]1O` (stereo partly drawn) [1-[2-(méthylamino)-propyl]-C-β-D-xylopyranose]: the activity at 100 µM in the assay with kératinocytes [1] (setting [5]) worked out at 93%; in assay [2] (0,1 mM), 102%. Also, the activity at 1000 µM in the assay with kératinocytes [1] (setting [6]) came to 139%; in assay [2] (1 mM) it was 106%. The Valeur moyenne in the assay on kératinocytes [1] (0,1 mM) is 11922 cpm; in the assay on kératinocytes [1] (1 mM) it was 17916 cpm; in assay [2] (0,1 mM), 2569 cpm; in assay [2] (1 mM) it was 2659 cpm.

Consider `CC(N)C[C@@H]1OC[C@@H](O)[C@H](O)[C@H]1O` (stereo partly drawn) [1-[2-amino-propyl]-C-β-D-xylopyranose], for which the activity at 100 µM with kératinocytes [1] (setting [5]) was 113%; in assay [2] (0,1 mM) it was 91%. Further, the activity at 1000 µM with kératinocytes [1] (setting [6]) worked out at 225%; in assay [2] (1 mM) it was 139%. Further, the Valeur moyenne with kératinocytes [1] (0,1 mM) was determined as 14465 cpm; in the assay on kératinocytes [1] (1 mM), 28870 cpm; in assay [2] (0,1 mM), 2301 cpm; in assay [2] (1 mM), 3507 cpm.

For `[Ca+2].[Cl-].[Cl-]` [CaCl2, reference compound], in the assay on kératinocytes [3] (positive control CaCl2 at 1,4 mM, control = 100, 1400 µM), the “% (synthèse des glycosaminoglycanes par rapport au témoin)” value is 117%. For the same compound, the Valeur moyenne with kératinocytes [3] (positive control CaCl2 at 1,4 mM) was found to be 5273 cpm.

In the case of `CCOC(=O)C(Cc1ccccc1)NC(C)CC1OCC(O)C(O)C1O` [Composé de l'exemple 5, chlorhydratede l'ester éthyliquede l'acide 2R-[1-méthyl 2-(C-β-D-xylopyranoside) éthyl]-amino 3-phényl propanoïque], the activity at 370 µM in assay [4] (Fibroblast, fibroblasts, 0,37 mM, control = 100, n=3, read-out: % (synthèse des glycosaminoglycanes par rapport au témoin)) was found to be 616%. Further, the activity at 1110 µM in assay [4] (Fibroblast, fibroblasts, 1,11 mM, control = 100, n=3, read-out: % (synthèse des glycosaminoglycanes par rapport au témoin)) was determined as 605%. For the same compound, the Valeur moyenne was 14373 cpm in assay [4] (fibroblasts, 0,37 mM, n=3); 14111 cpm in assay [4] (fibroblasts, 1,11 mM, n=3); 21975 cpm with kératinocytes [3] (66 µM); 29007 cpm in the assay on kératinocytes [3] (200 µM). Also, the “augmenter la synthèse des GAGs sulfatés” value in assay [4] was “très efficaces”. Also, the activity at 66 µM in the assay on kératinocytes [3] (Keratinocyte, 66 µM, control = 100, read-out: % (synthèse des glycosaminoglycanes par rapport au témoin)) stood at 438%. The activity at 200 µM in the assay with kératinocytes [3] (Keratinocyte, 200 µM, control = 100, read-out: % (synthèse des glycosaminoglycanes par rapport au témoin)) is 570%.

Turning to `CCCCCCNC(C)C[C@@H]1OC[C@@H](O)[C@H](O)[C@H]1O` (some centres unmarked) [Composé de l'exemple 10], the “augmenter la synthèse des GAGs sulfatés” value in assay [4] was “très efficaces”. Further, the activity at 100 µM with kératinocytes [1] (setting [5]) was determined as 427%; in assay [2] (0,1 mM), 553%. The activity at 1000 µM in the assay on kératinocytes [1] (setting [6]) turned out to be 255%; in assay [2] (1 mM), 595%. For the same compound, the Valeur moyenne stood at 54897 cpm in the assay on kératinocytes [1] (0,1 mM), 32733 cpm in the assay on kératinocytes [1] (1 mM), 13925 cpm in assay [2] (0,1 mM) and 14992 cpm in assay [2] (1 mM).

For the compound `CCCNC(C)C[C@@H]1OC[C@@H](O)[C@H](O)[C@H]1O` (some centres unmarked) [Composé de l'exemple 11], in assay [4], the “augmenter la synthèse des GAGs sulfatés” value is on record as “très efficaces”. In addition, in the assay on kératinocytes [1] (Keratinocyte, 0,1 µM, control = 100, read-out: % (synthèse des glycosaminoglycanes par rapport au témoin)), the activity at 0.1 µM was 112%. In addition, the activity at 1 µM in the assay with kératinocytes [1] (Keratinocyte, 1 µM, control = 100, read-out: % (synthèse des glycosaminoglycanes par rapport au témoin)) is 351%. Besides, the Valeur moyenne was found to be 14408 cpm in the assay on kératinocytes [1] (0,1 µM), 45124 cpm with kératinocytes [1] (1 µM), 3197 cpm in assay [2] (0,1 mM) and 11109 cpm in assay [2] (1 mM). In addition, the activity at 100 µM in assay [2] (0,1 mM) stood at 127%. Moreover, the activity at 1000 µM in assay [2] (1 mM) is 441%.

Values taken from patent EP2373670B1, “NOVEL AMINO SUBSTITUTED C-GLYCOSIDE DERIVATIVES AND USE THEREOF AS COSMETIC” (L'Oréal, priority 2008, dated 2010).
